# Data reported in article PMC8079033, “Design, synthesis, anticancer evaluation, and molecular modelling studies of novel tolmetin derivatives as potential VEGFR-2 inhibitors and apoptosis inducers” (Journal of Enzyme Inhibition and Medicinal Chemistry, 2021).
# What was measured:
# Assay in all cases: NCI 60-cell line one-dose antiproliferative screen (SRB)
# Assay type in all cases: cell-based
# [1] = test system: T-47D; settings: Homo sapiens, T47D, read-out: growth inhibition % (GI%)
# Summary of the method: (§1)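 Seed cells; incubate 24 h; fix time-zero plates with TCA; add compound to 10 µM; incubate 48 h at 37 °C; fix in cold TCA; stain with 0.4% SRB; solubilise in 10 mM Tris base; read 515 nm.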
# [2] = test system: MOLT-4; settings: Homo sapiens, read-out: growth inhibition % (GI%)
# Summary of the method: as §1
# [3] = test system: SNB-19; settings: Homo sapiens, read-out: growth inhibition % (GI%)
# Summary of the method: as §1
# [4] = test system: A498; settings: Homo sapiens, read-out: growth inhibition % (GI%)
# Summary of the method: as §1
# [5] = test system: HOP-62; settings: Homo sapiens, read-out: growth inhibition % (GI%)
# Summary of the method: as §1
# [6] = test system: SNB-75; settings: Homo sapiens, read-out: growth inhibition % (GI%)
# Summary of the method: as §1
# [7] = test system: NCI-H460; settings: Homo sapiens, read-out: growth inhibition % (GI%)
# Summary of the method: as §1
# [8] = test system: HCT-15; settings: Homo sapiens, read-out: growth inhibition % (GI%)
# Summary of the method: as §1
# [9] = test system: A549/ATCC; settings: Homo sapiens, read-out: growth inhibition % (GI%)
# Summary of the method: as §1
# [10] = test system: PC-3; settings: Homo sapiens, read-out: growth inhibition % (GI%)
# Summary of the method: as §1
# [11] = test system: M14; settings: Homo sapiens, read-out: growth inhibition % (GI%)
# Summary of the method: as §1
# [12] = test system: UO-31; settings: Homo sapiens, read-out: growth inhibition % (GI%)
# Summary of the method: as §1
# [13] = test system: MCF7; settings: Homo sapiens, read-out: growth inhibition % (GI%)
# Summary of the method: as §1
# [14] = test system: U251; settings: Homo sapiens, U-251, read-out: growth inhibition % (GI%)
# Summary of the method: as §1
# [15] = test system: SF-539; settings: Homo sapiens, read-out: growth inhibition % (GI%)
# Summary of the method: as §1
# [16] = test system: HCT-116; settings: Homo sapiens, read-out: growth inhibition % (GI%)
# Summary of the method: as §1
# [17] = test system: CAKI-1; settings: Homo sapiens, read-out: growth inhibition % (GI%)
# Summary of the method: as §1
# [18] = test system: K-562; settings: Homo sapiens, K562, read-out: growth inhibition % (GI%)
# Summary of the method: as §1
# [19] = test system: NCI/ADR-RES; settings: Homo sapiens, read-out: growth inhibition % (GI%)
# Summary of the method: as §1
# [20] = test system: SN 12 C; settings: Homo sapiens, SN12C, read-out: growth inhibition % (GI%)
# Summary of the method: as §1
# [21] = test system: MDA-MB-231/ATCC; settings: Homo sapiens, read-out: growth inhibition % (GI%)
# Summary of the method: as §1
# [22] = test system: EKVX; settings: Homo sapiens, read-out: growth inhibition % (GI%)
# Summary of the method: as §1
# [23] = test system: OVCAR-8; settings: Homo sapiens, read-out: growth inhibition % (GI%)
# Summary of the method: as §1
# [24] = test system: NCI-H522; settings: Homo sapiens, read-out: growth inhibition % (GI%)
# Summary of the method: as §1
# [25] = test system: IGROV1; settings: Homo sapiens, IGROV-1, read-out: growth inhibition % (GI%)
# Summary of the method: as §1
# [26] = test system: ACHN; settings: Homo sapiens, read-out: growth inhibition % (GI%)
# Summary of the method: as §1
# [27] = test system: OVCAR-5; settings: Homo sapiens, read-out: growth inhibition % (GI%)
# Summary of the method: as §1
# [28] = test system: MDA-MB-468; settings: Homo sapiens, read-out: growth inhibition % (GI%)
# Summary of the method: as §1
# [29] = test system: 786-0; settings: Homo sapiens, read-out: growth inhibition % (GI%)
# Summary of the method: as §1
# [30] = test system: CCRF-CEM; settings: Homo sapiens, read-out: growth inhibition % (GI%)
# Summary of the method: as §1
# [31] = test system: NCI-H23; settings: Homo sapiens, read-out: growth inhibition % (GI%)
# Summary of the method: as §1
# [32] = test system: SK-MEL-5; settings: Homo sapiens, read-out: growth inhibition % (GI%)
# Summary of the method: as §1
# [33] = test system: LOX IMVI; settings: Homo sapiens, read-out: growth inhibition % (GI%)
# Summary of the method: as §1
SMILES,inhibition at 10 µM [1],inhibition at 10 µM [2],inhibition at 10 µM [3],inhibition at 10 µM [4],inhibition at 10 µM [5],inhibition at 10 µM [6],inhibition at 10 µM [8],inhibition at 10 µM [9],inhibition at 10 µM [10],inhibition at 10 µM [11],inhibition at 10 µM [12],inhibition at 10 µM [13],inhibition at 10 µM [14],inhibition at 10 µM [15],inhibition at 10 µM [16],inhibition at 10 µM [17],inhibition at 10 µM [18],inhibition at 10 µM [19],inhibition at 10 µM [20],inhibition at 10 µM [21],further results
"Cc1ccc(C(=O)c2ccc(CC(=O)NN=Cc3cccc(O)c3O)n2C)cc1 [Compound 5b, N′-(2,3-Dihydroxybenzylidene)-2–(1-methyl-5–(4-methylbenzoyl)-1H-pyrrol-2-yl) acetohydrazide]",74.1%,88.8%,54%,< 10%,50.1%,74.6%,84.3%,41.3%,40.8%,71.5%,85.8%,84%,74%,66.2%,69.2%,62.7%,69.6%,80.9%,53.2%,54.7%,inhibition at 10 µM [7]: 91.4%; inhibition at 10 µM [22]: 41.2%; inhibition at 10 µM [23]: 61.4%; inhibition at 10 µM [24]: 51.2%; inhibition at 10 µM [25]: 48.8%; inhibition at 10 µM [26]: 86.5%; inhibition at 10 µM [27]: 27.4%; inhibition at 10 µM [28]: 45.1%; inhibition at 10 µM [29]: 23.6%; inhibition at 10 µM [30]: 86.9%; inhibition at 10 µM [31]: 54.6%; inhibition at 10 µM [32]: 65.4%; inhibition at 10 µM [33]: 82.7%
"Cc1ccc(C(=O)c2ccc(CC(=O)NN3C(=O)C=CC3=O)n2C)cc1 [Compound 7b, N-(2,5-Dioxo-2,5-dihydro-1H-pyrrol-1-yl)-2–(1-methyl-5–(4-methylbenzoyl)-1H-pyrrol-2-yl)acetamide]",25.5%,14%,11%,10.7%,10.4%,16%,< 10%,12.8%,10.7%,< 10%,35.3%,13.2%,< 10%,< 10%,14%,20.3%,16.5%,12.3%,14.8%,11.6%,inhibition at 10 µM [22]: 25.7%; inhibition at 10 µM [23]: < 10%; inhibition at 10 µM [24]: 15.9%; inhibition at 10 µM [25]: 22.2%; inhibition at 10 µM [26]: 11.1%; inhibition at 10 µM [27]: < 10%; inhibition at 10 µM [28]: < 10%; inhibition at 10 µM [29]: < 10%; inhibition at 10 µM [30]: < 10%; inhibition at 10 µM [31]: 23.9%; inhibition at 10 µM [32]: < 10%; inhibition at 10 µM [33]: 11.1%
"Cc1ccc(C(=O)c2ccc(CC(=O)NN3C(=O)CCC3=O)n2C)cc1 [Compound 7a, N-(2,5-Dioxopyrrolidin-1-yl)-2–(1-methyl-5–(4-methylbenzoyl)-1H-pyrrol-2-yl) acetamide]",42.8%,< 10%,20%,14.5%,15.5%,40.9%,< 10%,11.1%,10%,< 10%,41.2%,14.4%,< 10%,< 10%,11.3%,28.3%,11.2%,12.8%,19.1%,13.7%,inhibition at 10 µM [7]: < 10%; inhibition at 10 µM [22]: 23.9%; inhibition at 10 µM [23]: 11%; inhibition at 10 µM [24]: 30.8%; inhibition at 10 µM [25]: 22.3%; inhibition at 10 µM [26]: 11.2%; inhibition at 10 µM [27]: 10.6%; inhibition at 10 µM [28]: < 10%; inhibition at 10 µM [29]: < 10%; inhibition at 10 µM [30]: < 10%; inhibition at 10 µM [31]: 24.8%; inhibition at 10 µM [32]: < 10%; inhibition at 10 µM [33]: 12.8%
"Cc1ccc(C(=O)c2ccc(CC(=O)NN=Cc3ccccc3O)n2C)cc1 [Compound 5a, N′-(2-Hydroxybenzylidene)-2–(1-methyl-5–(4-methylbenzoyl)-1H-pyrrol-2-yl)aceto hydrazide]",24.4%,26%,20.7%,18%,24%,40.4%,56.5%,13.9%,13.2%,17.1%,59.3%,18.5%,23.8%,10.9%,< 10%,35.5%,15.8%,30.6%,10.2%,17.4%,inhibition at 10 µM [7]: 23.4%; inhibition at 10 µM [22]: 17.3%; inhibition at 10 µM [23]: 21%; inhibition at 10 µM [24]: 24.9%; inhibition at 10 µM [25]: 19.1%; inhibition at 10 µM [26]: 46.8%; inhibition at 10 µM [27]: < 10%; inhibition at 10 µM [28]: 18.9%; inhibition at 10 µM [29]: < 10%; inhibition at 10 µM [30]: 45.9%; inhibition at 10 µM [31]: 17.1%; inhibition at 10 µM [32]: 12.6%; inhibition at 10 µM [33]: 42%
"Cc1ccc(C(=O)c2ccc(CC(=O)NN=Cc3ccc(O)cc3O)n2C)cc1 [Compound 5c, N′-(2,4-Dihydroxybenzylidene)-2–(1-methyl-5–(4-methylbenzoyl)-1H-pyrrol-2-yl) acetohydrazide]",49.8%,87%,50.6%,12.6%,59.4%,68.9%,83.2%,53.4%,38.9%,71.2%,80.2%,60.8%,62.4%,55.6%,65.1%,53.4%,55.1%,65.4%,44.3%,48.6%,inhibition at 10 µM [7]: 78.9%; inhibition at 10 µM [22]: 65.8%; inhibition at 10 µM [23]: 51.6%; inhibition at 10 µM [24]: 44.5%; inhibition at 10 µM [25]: 58.3%; inhibition at 10 µM [26]: 83.5%; inhibition at 10 µM [27]: 36.6%; inhibition at 10 µM [28]: 53.2%; inhibition at 10 µM [29]: 56.6%; inhibition at 10 µM [30]: 83.2%; inhibition at 10 µM [31]: 57.6%; inhibition at 10 µM [32]: 60.7%; inhibition at 10 µM [33]: 81.2%
"Cc1ccc(C(=O)c2ccc(CC(=O)NNC(=O)Nc3ccc(Cl)c(C(F)(F)F)c3)n2C)cc1 [Compound 8c, N-(4-Chloro-3-(trifluoromethyl)phenyl)-2–(2-(1-methyl-5–(4-methylbenzoyl)-1H-pyrrol-2-yl)acetyl)hydrazinecarboxamide]",13.8%,19.2%,25.8%,18.3%,20%,35.7%,10.9%,21.7%,22.4%,11.7%,38.4%,21.7%,< 10%,< 10%,< 10%,35.2%,< 10%,< 10%,10.5%,16.7%,inhibition at 10 µM [7]: 16.8%; inhibition at 10 µM [22]: < 10%; inhibition at 10 µM [23]: 10.9%; inhibition at 10 µM [24]: 21.1%; inhibition at 10 µM [25]: 36.1%; inhibition at 10 µM [26]: < 10%; inhibition at 10 µM [27]: 10.9%; inhibition at 10 µM [28]: 17.5%; inhibition at 10 µM [30]: < 10%; inhibition at 10 µM [31]: < 10%; inhibition at 10 µM [32]: 22.3%; inhibition at 10 µM [33]: 10.5%
